According to patent US7598033B2, “Method and devices for running reactions on a target plate for MALDI mass spectrometry” (University of Pennsylvania, priority 2003, dated 2009):

Assays:
thrombin = thrombin (Homo sapiens, UniProt P00734); experiment: Nanoliter thrombin/fibrinogen reaction on MALDI target, MS detection of fibrinopeptides A and B; assay type: biochemical; conditions: benzamidine in the nanoliter reaction, FIG. 26B
Experimental: The glycerol in the reaction was then removed, and MALDI matrix was deposited to result in a thin film suitable (FIG. 26A) for MS detection of FPA/FPB.
A 8×12 array of reactions were printed using an OmniGrid microarrayer containing varying concentrations of fibrinogen and a fibrinopeptide MS satandard. Certain reactions contained 1 mM benzamidine. The array was activated with thrombin and incubated under humidity (top row, A), the glycerol was removed (middle row, A), and then coated with MALDI matrix (bottom row, A). […] Conditions of the MALDI MS were: Voyager-DE PRO (sinapinic acid matrix), Glu1-Fibrinopeptide B (1 ug/ml) control, Reflector Mode, Positive Polarity, 1000-2000 Da Acquisition Range, 20000 V Accelerating voltage, 2033 laser intensity (20.0 Hz; 100/spectrum), Extraction delay time: 150 nsec, Grid voltage: 75%, Guide wire voltage: 0.002%.

[1] = Fluorogenic substrate microarray, aerosol deposition of enzyme: boc-VPR-MCA; assay type: biochemical; conditions: after spray application
Experimental: Well characterized for over 30 years, serine proteases of the coagulation pathway in plasma were selected as a system in which to monitor the delivery of complex enzyme fluids to the microassay. Fluorogenic substrates in DMSO/glycerol were assayed to a glass slide.
After spray application, thrombin caused a 65-fold increase in fluorescence activity after conversion of the boc-VPR-MCA substrate. […] Aerosol deposition of pure tPA (10 μM) to a sensing array caused significant cleavage of the tPA, thrombin and Xa substrates, resulting in fluorescence that was 18- to 20-fold above background.

Molecule	inhibition of thrombin release of fibrinopeptides A and B from fibrinogen (thrombin)	increase in fluorescence activity after conversion of the boc-VPR-MCA substrate [1] [fold]
N=C(N)c1ccccc1 [Benzamidine]	completely inhibited	–
thrombin	–	65
